{
  "source": "patent US20080318218A1",
  "about": "“Compositions and Methods for Inferring an Adverse Effect in Response to a Drug Treatment” (DNAPrint Genomics, Inc., priority 2004, published 2008)",
  "origin": "cited, not measured here",
  "key": {"NO synthase": {"system": "NO synthase", "settings": "ACE inhibitor-associated cough; P<0.01; not with placebo"}, "[1]": {"settings": "clinical trials"}, "[2]": {"settings": "human, in vivo"}},
  "data": [
    {"smiles": "[Fe]", "note": "[iron]", "values": [
      {"measurement": "cough scores", "setting": "NO synthase", "result": "significant reduction"}
    ]},
    {"smiles": "COCc1c(C(C)C)nc(C(C)C)c(/C=C/[C@@H](O)C[C@@H](O)CC(=O)O)c1-c1ccc(F)cc1", "note": "[Baycol, Cerivastatin]", "values": [
      {"measurement": "patients experiencing muscle discomfort and/or creatine kinase elevations in response to treatment", "setting": "[1]", "result": "about 1%"}
    ]},
    {"smiles": "CC(C)c1c(C(=O)Nc2ccccc2)c(-c2ccccc2)c(-c2ccc(F)cc2)n1CC[C@@H](O)C[C@@H](O)CC(=O)O", "note": "[Atorvastatin]", "values": [
      {"measurement": "patients exhibiting persistent and dose-dependent indications of hepatic stress (elevation in serum transaminase SGOT, ALTGPT)", "setting": "[2]", "result": "Approximately 0.7%"}
    ]}
  ]
}
